Measurements: article PMC3003753 (Journal of medicinal chemistry, 2010)
Each block holds one compound with its values, some of them ahead of it.

Tests used:
[1] = test system: CXCR4/CXCL12-mediated Matrigel invasion of MDA-MB-231 cells; experiment: Matrigel invasion assay, CXCL12 as chemoattractant; type: cell-based; details: 10 nM compound, 200 ng/mL CXCL12, 0.01 µM
[2] = test system: carrageenan-induced mouse paw inflammation; experiment: Carrageenan-induced paw edema model; type: in vivo; details: for Paw inflammation suppression compared with 4: 10 mg/kg i.p. versus 4 at 300 µg/kg; for Paw inflammation inhibition percentage: 10 mg/kg i.p. daily
[3] = test system: Melanoma OMM2.3 cells; experiment: Uveal melanoma micrometastasis mouse model; type: in vivo; details: for Number of hepatic micrometastases: control around 90
[4] = Blood clearance and bioavailability of 26 in mice; details: mouse, in vivo
[5] = target: T1, CXCR4 (Homo sapiens, UniProt P61073); experiment: Ca2+ flux induced by CXCR4/CXCL12 interaction; type: cell-based; details: Gq pathway; data not shown
T1 sequence (P61073 whole entry): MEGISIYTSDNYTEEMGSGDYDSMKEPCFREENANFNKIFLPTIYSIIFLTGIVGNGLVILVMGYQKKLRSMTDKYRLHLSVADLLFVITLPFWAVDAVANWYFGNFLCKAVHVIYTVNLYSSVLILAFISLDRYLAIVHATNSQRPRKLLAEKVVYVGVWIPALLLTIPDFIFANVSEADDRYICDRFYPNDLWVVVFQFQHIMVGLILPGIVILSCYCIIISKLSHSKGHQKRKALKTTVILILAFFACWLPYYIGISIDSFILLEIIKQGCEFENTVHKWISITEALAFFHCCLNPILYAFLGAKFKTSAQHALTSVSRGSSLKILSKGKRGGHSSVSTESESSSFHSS

[6] = target: CCR5 (Homo sapiens, UniProt P51681); experiment: cAMP assay, U87CD4CCR5 cells stimulated with CCL5; type: cell-based; details: 150 ng/mL CCL5
Chain of CCR5 (P51681 whole entry): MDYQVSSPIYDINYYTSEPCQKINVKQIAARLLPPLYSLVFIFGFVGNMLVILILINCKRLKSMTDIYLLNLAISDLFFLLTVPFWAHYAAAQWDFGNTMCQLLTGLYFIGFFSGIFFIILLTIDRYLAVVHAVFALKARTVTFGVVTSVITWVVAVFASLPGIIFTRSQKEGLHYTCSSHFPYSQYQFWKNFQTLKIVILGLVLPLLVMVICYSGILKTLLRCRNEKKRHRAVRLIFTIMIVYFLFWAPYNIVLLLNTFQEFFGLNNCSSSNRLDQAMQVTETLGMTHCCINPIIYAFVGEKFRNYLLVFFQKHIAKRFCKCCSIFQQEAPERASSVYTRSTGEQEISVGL

[7] = target: T1, CXCR4; experiment: cAMP assay; type: cell-based
[8] = Further preclinical studies of compound 5; type: in vivo; details: data not shown
[9] = test system: MDA-MB-231 cells in Matrigel plugs; experiment: In vivo tumor angiogenesis assay; design: species or system mouse; details: 300 µg/kg daily s.c., 10 days, nude mice
[10] = test system: bleomycin induced lung fibrosis; experiment: Bleomycin induced lung fibrosis model; type: in vivo, mouse; details: 300 µg/kg i.p. daily, day 20 after bleomycin

Compound: CSc1nccc(NCc2ccc(CNc3ncc(F)cn3)cc2)n1 [Compound 21b, 5-fluoro-N-(4-((2-(methylthio)pyrimidin-4-ylamino)methyl)benzyl)pyrimidin-2-amine]
Invasion Inhibition 10nM [1]: 62%
Paw inflammation suppression compared with 4 [2]: comparable to 4

Compound: Fc1cnc(Cl)nc1NCc1ccc(CNc2ccnc(NCCN3CCOCC3)n2)cc1 [Compound 26]
Number of hepatic micrometastases ([3]; 10 mg/kg i.p. daily): around 40
Invasion Inhibition 10nM [1]: > 60%
Oral bioavailability [4]: lack of oral bioavailability
Paw inflammation suppression compared with 4 [2]: comparable to 4
Block of Ca2+ flux induced by CXCR4/CXCL12 interaction [5]: do not block
Effect on blocking CCL5 stimulating CCR5 (cAMP) [6]: no significant effect
IC50 [7]: ~1 nM
Interrupting CXCL12/CXCR4-mediated cAMP modulation [7]: effective

Compound: c1ccc(NCc2ccc(CNc3ccccn3)cc2)nc1 [Compound 5, WZ811]
Effect on blocking CCL5 stimulating CCR5 (cAMP) [6]: no significant effect
Bioavailability [8]: poor bioavailability
In vivo efficacy [8]: failed to exhibit any in vivo efficacy

Compound: Fc1cccc(NCc2ccc(CNc3ncccn3)cc2)n1 [Compound 10e, N-(4-((6-fluoropyridin-2-ylamino)methyl)benzyl)pyrimidin-2-amine]
Paw inflammation inhibition percentage ([2]; C57BL/6J mice): more than 50%
Paw inflammation suppression compared with 4 [2]: comparable to 4

Compound: TN14003 [Compound 4]
Angiogenesis inhibition (hemoglobin content of Matrigel plugs) [9]: about 70%
Decrease of hepatic micrometastases ([3]; 300 µg/kg i.p. daily, nude mice): about 50%
Number of hepatic micrometastases ([3]; 300 µg/kg i.p. daily): around 40
Lung fibrosis inhibition [10]: 85%
Paw inflammation suppression ([2]; 300 µg/kg i.p. daily, C57BL/6J mice): about 50%

Compound: Clc1cccc(NCc2ccc(CNc3ncccn3)cc2)n1 [Compound 10g, N-(4-((6-chloropyridin-2-ylamino)methyl)benzyl)pyrimidin-2-amine]
Paw inflammation inhibition percentage ([2]; C57BL/6J mice): more than 50%
Paw inflammation suppression compared with 4 [2]: comparable to 4

Now from value to compound:

Effect on blocking CCL5 stimulating CCR5 (cAMP) [6]: no significant effect
Compound: CCOCCN1CCN(C(=O)c2cnc(NCc3ccc(CNc4ncc(F)cn4)cc3)nc2C(F)(F)F)CC1 [Compound 21c, (4-(2-ethoxyethyl)piperazin-1-yl)(2-(4-((5-fluoropyrimidin-2-ylamino)methyl)benzylamino)-4-(trifluoromethyl)pyrimidin-5-yl)methanone]

Block of Ca2+ flux induced by CXCR4/CXCL12 interaction [5]: do not block
Interrupting CXCL12/CXCR4-mediated cAMP modulation [7]: effective
Compound: Fc1cnc(NCc2ccc(CNc3nccc(C(F)(F)F)n3)cc2)nc1 [Compound 21a, N-(4-((5-fluoropyrimidin-2-ylamino)methyl)benzyl)-4-(trifluoromethyl)pyrimidin-2-amine]
